Patent US10206394B2, “Herbicidal compounds” (Syngenta Participations AG, priority 2014, dated 2019)
Where two headings read alike, the source gives them in different places.

Experiments:
Experiment in all cases: Glasshouse assay for herbicidal activity (pre- and post-emergence), percentage phytotoxicity
Type in all cases: in vivo
[1] = tested on: Alopecurus myosuroides (ALOMY); settings: Alopecurus myosuroides
How it was run: (§1)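 Visual phytotoxicity score, 0% = undamaged to 100% = total kill, read 20 days after treatment for PRE and 15 days for POST. Pots of standard soil; treatment at day 1 (PRE) or roughly day 12 (POST). Glasshouse: 16 h photoperiod, 65% RH, 24/18 or 20/16 °C by climate type.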

[2] = tested on: Avena fatua (AVEFA); settings: Avena fatua
How it was run: as §1

[3] = tested on: Echinochloa crus-galli (ECHCG); settings: Echinochloa crus-galli
How it was run: as §1

[4] = tested on: Lolium perenne (LOLPE); settings: Lolium perenne
How it was run: as §1

[5] = post-emergence, 360 h, Rate 250 g/ha, post-emergence, visual assessment 15 DAA, 100%=total damage, 0%=no damage, read-out: Post-emergence herbicidal activity (percentage phytotoxicity) ALOMY POST
[6] = pre-emergence, 480 h, Rate 250 g/ha, pre-emergence, visual assessment 20 DAA, 100%=total damage, 0%=no damage, read-out: Pre-emergence herbicidal activity (percentage phytotoxicity) ALOMY PRE
[7] = post-emergence, 360 h, Rate 250 g/ha, post-emergence, visual assessment 15 DAA, 100%=total damage, 0%=no damage, read-out: Post-emergence herbicidal activity (percentage phytotoxicity) AVEFA POST
[8] = pre-emergence, 480 h, Rate 250 g/ha, pre-emergence, visual assessment 20 DAA, 100%=total damage, 0%=no damage, read-out: Pre-emergence herbicidal activity (percentage phytotoxicity) AVEFA PRE
[9] = post-emergence, 360 h, Rate 250 g/ha, post-emergence, visual assessment 15 DAA, 100%=total damage, 0%=no damage, read-out: Post-emergence herbicidal activity (percentage phytotoxicity) ECHCG POST
[10] = pre-emergence, 480 h, Rate 250 g/ha, pre-emergence, visual assessment 20 DAA, 100%=total damage, 0%=no damage, read-out: Pre-emergence herbicidal activity (percentage phytotoxicity) ECHCG PRE
[11] = post-emergence, 360 h, Rate 250 g/ha, post-emergence, visual assessment 15 DAA, 100%=total damage, 0%=no damage, read-out: Post-emergence herbicidal activity (percentage phytotoxicity) LOLPE POST
[12] = pre-emergence, 480 h, Rate 250 g/ha, pre-emergence, visual assessment 20 DAA, 100%=total damage, 0%=no damage, read-out: Pre-emergence herbicidal activity (percentage phytotoxicity) LOLPE PRE
[13] = post-emergence, 360 h, POST-emergence, rate 250 g/ha, visual score 15 DAA (100%=total damage, 0%=no damage), read-out: Post-emergence herbicidal activity (percentage phytotoxicity) ALOMY POST
[14] = pre-emergence, 480 h, PRE-emergence, rate 250 g/ha, visual score 20 DAA (100%=total damage, 0%=no damage), read-out: Pre-emergence herbicidal activity (percentage phytotoxicity) ALOMY PRE
[15] = post-emergence, 360 h, POST-emergence, rate 250 g/ha, visual score 15 DAA (100%=total damage, 0%=no damage), read-out: Post-emergence herbicidal activity (percentage phytotoxicity) AVEFA POST
[16] = pre-emergence, 480 h, PRE-emergence, rate 250 g/ha, visual score 20 DAA (100%=total damage, 0%=no damage), read-out: Pre-emergence herbicidal activity (percentage phytotoxicity) AVEFA PRE
[17] = post-emergence, 360 h, POST-emergence, rate 250 g/ha, visual score 15 DAA (100%=total damage, 0%=no damage), read-out: Post-emergence herbicidal activity (percentage phytotoxicity) ECHCG POST
[18] = pre-emergence, 480 h, PRE-emergence, rate 250 g/ha, visual score 20 DAA (100%=total damage, 0%=no damage), read-out: Pre-emergence herbicidal activity (percentage phytotoxicity) ECHCG PRE
[19] = post-emergence, 360 h, POST-emergence, rate 250 g/ha, visual score 15 DAA (100%=total damage, 0%=no damage), read-out: Post-emergence herbicidal activity (percentage phytotoxicity) LOLPE POST
[20] = pre-emergence, 480 h, PRE-emergence, rate 250 g/ha, visual score 20 DAA (100%=total damage, 0%=no damage), read-out: Pre-emergence herbicidal activity (percentage phytotoxicity) LOLPE PRE
[21] = post-emergence, 360 h, Rate 250 g/ha, post-emergence, assessed visually 15 DAA, 100%=total damage, 0%=no damage, read-out: Post-emergence herbicidal activity (percentage phytotoxicity) ALOMY POST
[22] = pre-emergence, 480 h, Rate 250 g/ha, pre-emergence, assessed visually 20 DAA, 100%=total damage, 0%=no damage, read-out: Pre-emergence herbicidal activity (percentage phytotoxicity) ALOMY PRE
[23] = post-emergence, 360 h, Rate 250 g/ha, post-emergence, assessed visually 15 DAA, 100%=total damage, 0%=no damage, read-out: Post-emergence herbicidal activity (percentage phytotoxicity) AVEFA POST
[24] = pre-emergence, 480 h, Rate 250 g/ha, pre-emergence, assessed visually 20 DAA, 100%=total damage, 0%=no damage, read-out: Pre-emergence herbicidal activity (percentage phytotoxicity) AVEFA PRE
[25] = post-emergence, 360 h, Rate 250 g/ha, post-emergence, assessed visually 15 DAA, 100%=total damage, 0%=no damage, read-out: Post-emergence herbicidal activity (percentage phytotoxicity) ECHCG POST
[26] = pre-emergence, 480 h, Rate 250 g/ha, pre-emergence, assessed visually 20 DAA, 100%=total damage, 0%=no damage, read-out: Pre-emergence herbicidal activity (percentage phytotoxicity) ECHCG PRE
[27] = post-emergence, 360 h, Rate 250 g/ha, post-emergence, assessed visually 15 DAA, 100%=total damage, 0%=no damage, read-out: Post-emergence herbicidal activity (percentage phytotoxicity) LOLPE POST
[28] = pre-emergence, 480 h, Rate 250 g/ha, pre-emergence, assessed visually 20 DAA, 100%=total damage, 0%=no damage, read-out: Pre-emergence herbicidal activity (percentage phytotoxicity) LOLPE PRE

| Compound | pest or weed control at 250 g/ha [1, 5] [%] | pest or weed control at 250 g/ha [1, 6] [%] | pest or weed control at 250 g/ha [2, 7] [%] | pest or weed control at 250 g/ha [2, 8] [%] | pest or weed control at 250 g/ha [3, 9] [%] | pest or weed control at 250 g/ha [3, 10] [%] | pest or weed control at 250 g/ha [4, 11] [%] | pest or weed control at 250 g/ha [4, 12] [%] | pest or weed control at 250 g/ha [1, 21] [%] | pest or weed control at 250 g/ha [1, 22] [%] | pest or weed control at 250 g/ha [2, 23] [%] | pest or weed control at 250 g/ha [2, 24] [%] | pest or weed control at 250 g/ha [3, 25] [%] | pest or weed control at 250 g/ha [3, 26] [%] | pest or weed control at 250 g/ha [4, 27] [%] | pest or weed control at 250 g/ha [4, 28] [%] | other results |
| --- | --- | --- | --- | --- | --- | --- | --- | --- | --- | --- | --- | --- | --- | --- | --- | --- | --- |
| COCCCNC(=O)CC1CC(OC(=O)C(C)(C)C)=C(c2c(C)cc(C)cc2C)C1=O (stereo not drawn) [Compound P10] | 90 | 90 | 90 | 60 | 90 | 90 | 90 | 90 | – | – | – | – | – | – | – | – | – |
| CNC(=O)CC1CC(=O)C(c2c(C)cc(-c3ncc(F)cn3)cc2C)C1=O (stereo not drawn) [Compound B280] | – | – | – | – | – | – | – | – | – | – | – | – | – | – | – | – | pest or weed control at 250 g/ha [1, 13]: 100%; pest or weed control at 250 g/ha [1, 14]: 100%; pest or weed control at 250 g/ha [2, 15]: 100%; pest or weed control at 250 g/ha [2, 16]: 100%; pest or weed control at 250 g/ha [3, 17]: 100%; pest or weed control at 250 g/ha [3, 18]: 100%; pest or weed control at 250 g/ha [4, 19]: 100%; pest or weed control at 250 g/ha [4, 20]: 100% |
| CC#Cc1cc(C)c(C2C(=O)CC(CC(=O)NC(C)(C)C#N)C2=O)c(C)c1 (stereo not drawn) [Compound B379] | 90 | 90 | 90 | 70 | 90 | 70 | 60 | 70 | – | – | – | – | – | – | – | – | – |
| Cc1cc(-c2ccc(F)cn2)cc(C)c1C1C(=O)CC(CC(=O)NCC2CC2)C1=O (stereo not drawn) [Compound B386] | 100 | 100 | 100 | 100 | 40 | 100 | 90 | 100 | – | – | – | – | – | – | – | – | – |
| COCC(C)NC(=O)CC1CC(=O)C(c2c(C)cc(Br)cc2C)C1=O (stereo not drawn) [Compound B134] | – | – | – | – | – | – | – | – | – | – | – | – | – | – | – | – | pest or weed control at 250 g/ha ([1]; post-emergence, 360 h, 250 g/ha, post-emergence, 15 DAA, visual assessment (100%=total damage, 0%=no damage), read-out: Post-emergence herbicidal activity (percentage phytotoxicity) ALOMY POST): 90%; pest or weed control at 250 g/ha ([1]; pre-emergence, 480 h, 250 g/ha, pre-emergence, 20 DAA, visual assessment (100%=total damage, 0%=no damage), read-out: Pre-emergence herbicidal activity (percentage phytotoxicity) ALOMY PRE): 90%; pest or weed control at 250 g/ha ([2]; post-emergence, 360 h, 250 g/ha, post-emergence, 15 DAA, visual assessment (100%=total damage, 0%=no damage), read-out: Post-emergence herbicidal activity (percentage phytotoxicity) AVEFA POST): 90%; pest or weed control at 250 g/ha ([2]; pre-emergence, 480 h, 250 g/ha, pre-emergence, 20 DAA, visual assessment (100%=total damage, 0%=no damage), read-out: Pre-emergence herbicidal activity (percentage phytotoxicity) AVEFA PRE): 70%; pest or weed control at 250 g/ha ([3]; post-emergence, 360 h, 250 g/ha, post-emergence, 15 DAA, visual assessment (100%=total damage, 0%=no damage), read-out: Post-emergence herbicidal activity (percentage phytotoxicity) ECHCG POST): 80%; pest or weed control at 250 g/ha ([3]; pre-emergence, 480 h, 250 g/ha, pre-emergence, 20 DAA, visual assessment (100%=total damage, 0%=no damage), read-out: Pre-emergence herbicidal activity (percentage phytotoxicity) ECHCG PRE): 70%; pest or weed control at 250 g/ha ([4]; post-emergence, 360 h, 250 g/ha, post-emergence, 15 DAA, visual assessment (100%=total damage, 0%=no damage), read-out: Post-emergence herbicidal activity (percentage phytotoxicity) LOLPE POST): 80%; pest or weed control at 250 g/ha ([4]; pre-emergence, 480 h, 250 g/ha, pre-emergence, 20 DAA, visual assessment (100%=total damage, 0%=no damage), read-out: Pre-emergence herbicidal activity (percentage phytotoxicity) LOLPE PRE): 80% |
| CCCCNC(=O)CC1CC(=O)C(c2c(C)cc(-c3ncc(Cl)cc3F)cc2C)C1=O (stereo not drawn) [Compound A44] | – | – | – | – | – | – | – | – | 100 | 100 | 100 | 100 | 100 | 100 | 100 | 100 | – |
| CCc1cc(-n2cc(Cl)cn2)cc(C)c1C1C(=O)CC(CC(=O)N(C)C(C)(C)C)C1=O (stereo not drawn) [Compound B239] | – | – | – | – | – | – | – | – | – | – | – | – | – | – | – | – | pest or weed control at 250 g/ha [1, 13]: 90%; pest or weed control at 250 g/ha [1, 14]: 100%; pest or weed control at 250 g/ha [2, 15]: 100%; pest or weed control at 250 g/ha [2, 16]: 90%; pest or weed control at 250 g/ha [3, 17]: 100%; pest or weed control at 250 g/ha [3, 18]: 100%; pest or weed control at 250 g/ha [4, 19]: 100%; pest or weed control at 250 g/ha [4, 20]: 100% |
| Cc1cc(-c2ccc(Cl)cn2)cc(C)c1C1C(=O)CC(CC(=O)NCc2cccs2)C1=O (stereo not drawn) [Compound B373] | 80 | 70 | 100 | 80 | 100 | 100 | 80 | 100 | – | – | – | – | – | – | – | – | – |
| Cc1cc(-c2ncc(Cl)cc2F)cc(C)c1C1C(=O)CC(CC(=O)NCc2ccccc2F)C1=O (stereo not drawn) [Compound A118] | – | – | – | – | – | – | – | – | 90 | 80 | 100 | 100 | 100 | 100 | 100 | 90 | – |
| Cc1cc(-c2ncc(Cl)cc2F)cc(C)c1C1C(=O)CC(CC(=O)NCc2ncccc2Cl)C1=O (stereo not drawn) [Compound A114] | – | – | – | – | – | – | – | – | 100 | 90 | 100 | 90 | 100 | 100 | 100 | 90 | – |
| Cc1cc(C)c(C2C(=O)CC(CC(=O)NCc3cccc(Cl)c3)C2=O)c(C)c1 (stereo not drawn) [Compound A96] | – | – | – | – | – | – | – | – | 80 | 100 | 80 | 70 | 80 | 100 | 100 | 100 | – |
| C=CC(C)NC(=O)CC1CC(=O)C(c2c(C)cc(-c3ccc(F)cn3)cc2C)C1=O (stereo not drawn) [Compound B390] | 100 | 100 | 100 | 100 | 90 | 100 | 90 | 100 | – | – | – | – | – | – | – | – | – |
